Measurements reported in patent US9040563B2, “Dual inhibitors of farnesyltransferase and geranylgeranyltransferase I” (H. Lee Moffitt Cancer Center and Research Institute, Inc., priority 2010, dated 2015).
Where two headings read alike, the source gives them in different places.

Columns and labels:
farnesylation of H-Ras = assay: Whole cell inhibition of H-Ras processing (farnesylation), immunoblot, oncogenic H-Ras-transformed NIH3T3 cells; format: cell-based, mouse
Protocol: In vitro inhibition assays for FTase and GGTase-I were conducted by measuring the incorporation of [^3H]FPP and [^3H]GGPP into recombinant H-Ras-CVLS and H-Ras-CVLL, respectively, as previously described (Vogt, et al., Protein geranylgeranylation, not farnesylation, is required for the G1 to S phase transition in mouse fibroblasts. Oncogene, 1996, 13, 1991-1999). The in vivo inhibition of farnesylation and geranylgeranylation was determined based on the level of inhibition by synthetic compounds of H-Ras and Rap1A processing, respectively (Sun, et al., Both farnesyltransferase and geranylgeranyltransferase I inhibitors are required for inhibition of oncogenic K-Ras prenylation but each alone is sufficient to suppress human tumor growth in nude mouse xenografts. Oncogene, 1998, 16, 1467-1473). […] The separated proteins were transferred to nitrocellulose and immunoblotted using an anti-Ras antibody (Y13-258) or an anti-Rap1A antibody (SantaCruz Biotechnology, Santa Cruz, Calif.), respectively. Antibody reactions were visualized using either peroxidase-conjugated goat anti-rat IgG or goat anti-rabbit IgG (Jackson ImmunoResearch, West Grove, Pa.) and an enhanced chemiluminescence detection system.
Briefly, in vitro inhibition assays for hFTase and GGTase-I were carried out by measuring the incorporation of [^3H]FPP and [^3H]GGPP into recombinant H-Ras-CVLS and H-Ras-CVLL, respectively, as described previously (Vogt et al., Protein geranylgeranylation, not farnesylation, is required for G1 to S phase transition in mouse fibroblasts. Oncogene. 1996; 13:1991-1999). Whole cell inhibition of farnesylation and geranylgeranylation were determined based on the level of inhibition by synthetic compounds of H-Ras and Rap1A processing, respectively (Sun, et al., Both farnesyltransferase and geranylgeranyltransferase I inhibitors are required for inhibition of oncogenic K-Ras prenylation but each alone is sufficient to suppress human tumor growth in nude mouse xenografts. Oncogene. 1998; 16:1467-1473).

MDA-MB-231 = assay: MTT proliferation/viability assay; format: cell-based; conditions: Homo sapiens, MDA-MB-231, MDA-MB-231, breast
Protocol: (§1) To determine if FGTI-2734 is more efficacious than FT or GGT-1 inhibitors, 10 human cancer pancreatic cell lines, 2 human breast cancer cell lines, 2 human lung cancer cell lines and one human prostate cancer cell line were treated with these inhibitors and determined their effects on the proliferation of these cells by MTT assay.

NCI-H460 = assay: MTT proliferation/viability assay; format: cell-based; conditions: Homo sapiens, NCI-H460, lung
Protocol: as §1

[1] = system: Rap-1A geranylgeranylation; assay: Western blot of Rap-1A geranylgeranylation/processing (antibody to un-geranylgeranylated Rap-1A) in treated cells; format: cell-based; conditions: MiaPaca, MDA-MB-468 and MDA-MB-231 human cancer cells; FIG. 13
Protocol: The ability of FGTI-2734 to inhibit HDJ-2 farnesylation and Rap-1A geranylgeranylation in human cancer cells was determined next. To this end, the MiaPaca pancreatic cancer cell line and 2 breast cancer cell lines (MDA-MB-468 and MDA-MB-231) were treated with various concentration of the dual inhibitor FGTI-2734, the GGT-1 inhibitor GGTI-2418 or the FT inhibitor FTI-2153 and processed for Western blotting.
Testing has shown that the dual farnesyltransferase and geranygeranyltransferase-I inhibitors are effective on pancreatic tumors (90% of all cases), colonic tumors (30% of all cases), lung tumors (30% of all cases), and breast tumors (10% of all cases). NIH-3T3 cells that overexpress oncogenic mutant K-Ras, seen in FIG. 14, and MDA-MB-231 breast cancer cells with a naturally occurring K-Ras mutation, seen in FIG. 15, were treated with indicated concentrations of FGTI-2734, GGTI-2417 or FTI-2153. FGTI-2734 but not FTI-2153 or GGTI-2417 inhibited K-Ras prenylation. As expected, GGTI-2417 inhibited the processing of Rap1 but not HDJ-2 whereas FTI-2153 inhibited the processing of HDJ-2 but not Rap1.
Mammalian target of rapamycin (mTOR) is a serine/threonine phosphatidylinositol 3-kinase-related kinase responsible for cell growth, proliferation, cell survival, protein synthesis, and transcription. Alteration of the mTOR pathway, either through activation of oncogenes or inactivation of tumor suppressors, disrupts a signaling equilibrium and causes malignant transformation. Studies have shown that phosphorylated S6 (pS6) is related to mTOR pathway alterations, and is useful in determining PI3K-based cancer therapies (Aziz, et al. Phosphatidylinositol-3-Kinase as a Therapeutic Target in Melanoma. Clin Cancer Res. 2009, 15; 3029-3036). Two breast adenocarcinoma and a pancreatic carcinoma cell line were treated with indicated concentrations of FGTI-2734, GGTI-2417 or FTI-2153. Protein extracts were run on a Western Blot using antibody against pS6 (ser240/244) (Cell Signaling Technology, Inc., Danvers, Mass.). […]

HPDE-C7-Kras = assay: MTT proliferation/viability assay; format: cell-based, human; conditions: pancreas
Protocol: as §1

BxPC3 = assay: MTT proliferation/viability assay; format: cell-based, human
Protocol: as §1

SW1990 = assay: MTT proliferation/viability assay; format: cell-based, human
Protocol: as §1

A549 = assay: MTT proliferation/viability assay; format: cell-based, human; conditions: Homo sapiens, A549, lung
Protocol: as §1

ASPC-1 = assay: MTT proliferation/viability assay; format: cell-based, human
Protocol: as §1

HPNE-K-ras = assay: MTT proliferation/viability assay; format: cell-based, human; conditions: Homo sapiens, pancreas
Protocol: as §1

[2] = system: mTOR signaling pathway (pS6); assay: Western blot of pS6 (ser240/244), mTOR pathway signaling; format: cell-based, human; conditions: two breast adenocarcinoma and a pancreatic carcinoma cell line; FIG. 16
From the text: (§2) Mammalian target of rapamycin (mTOR) is a serine/threonine phosphatidylinositol 3-kinase-related kinase responsible for cell growth, proliferation, cell survival, protein synthesis, and transcription. Alteration of the mTOR pathway, either through activation of oncogenes or inactivation of tumor suppressors, disrupts a signaling equilibrium and causes malignant transformation. Studies have shown that phosphorylated S6 (pS6) is related to mTOR pathway alterations, and is useful in determining PI3K-based cancer therapies (Aziz, et al. Phosphatidylinositol-3-Kinase as a Therapeutic Target in Melanoma. Clin Cancer Res. 2009, 15; 3029-3036). Two breast adenocarcinoma and a pancreatic carcinoma cell line were treated with indicated concentrations of FGTI-2734, GGTI-2417 or FTI-2153. Protein extracts were run on a Western Blot using antibody against pS6 (ser240/244) (Cell Signaling Technology, Inc., Danvers, Mass.). […] Antibodies used were HDJ-2 (Lab Vision Corporation, Fremont, Calif.), Rapt (Santa Cruz Biotechnology, Santa Cruz, Calif.), K-Ras (EMD4 Biosciences (Calbiochem), Gibbstown, N.J.), P27 (BD Biosciences, San Jose, Calif.), Actin (Sigma-Aldrich, St. Louis, Mo.), Survivin (Santa Cruz Biotechnology, Santa Cruz, Calif.), and PARP (Roche, Indianapolis, Ind.).

hFTase = hFTase (Homo sapiens, UniProt P49354+P49356); assay: In vitro hFTase inhibition: incorporation of [3H]FPP into recombinant H-Ras-CVLS; format: biochemical
p27Kip1 = assay: Western blot of p27Kip1 protein levels; format: cell-based; conditions: human cancer cells; FIG. 17
From the text: as §2

IC50 (farnesylation of H-Ras; Mus musculus, NIH3T3, whole cells, oncogenic H-Ras-transformed NIH3T3, n = 3 unless stated, read-out: H-Ras processing IC50): 88.7 ± 25.8 nM
IC50 (farnesylation of H-Ras; whole cells, NIH 3T3, values in nM, listed as FGTI-2734, read-out: H-Ras processing IC50 (whole cell)): 89 ± 26 nM
IC50 (MDA-MB-231): 12.2 ± 0.97 µM
IC50 (NCI-H460): 7.19 ± 1.18 µM
IC50 (BxPC3; BxPC3, pancreas, listed as FGTI-2734): 17.8 µM
IC50 (BxPC3; Homo sapiens, BXPC-3, BxPC3, pancreas): 17.2 µM
IC50 (SW1990; Homo sapiens, SW1990, SW1990, pancreas): 26.3 µM
IC50 (SW1990; SW1990, pancreas, listed as FGTI-2734): 24.2 µM
IC50 (A549): 13.2 ± 3.64 µM
IC50 (ASPC-1; ASPC-1, pancreas, listed as FGTI-2734): 12.6 µM
IC50 (ASPC-1; Homo sapiens, ASPC1, ASPC-1, pancreas): 11.2 µM
selectivity (ratio of GGTase-I to FTase IC50s) (hFTase; GGTase-I IC50 / hFTase IC50): 2.1
IC50 (hFTase; in vitro, average of three independent assays (n = 3) unless stated, errors are standard deviations): 0.25 ± 0.19 µM
Compound: Cn1cncc1CN(CCN(CC1CCCCC1)S(=O)(=O)c1ccccn1)c1ccc(C#N)cc1F [21b, N-(2-((4-cyano-2-fluorophenyl)((1-methyl-1H-imidazol-5-yl)methyl)amino)ethyl)-N-(cyclohexylmethyl)pyridine-2-sulfonamide]
inhibition of Rap-1A geranylgeranylation [1]: inhibited
IC50 (HPDE-C7-Kras; Homo sapiens): 6.6 µM
IC50 (HPDE-C7-Kras; listed as FGTI-2734): 8.7 µM
IC50 (HPNE-K-ras): 14.7 ± 0.89 µM
mTOR pathway signaling, levels of pS6 [2]: reducing the levels of pS6
p27Kip1 protein levels (p27Kip1): induces
